The text below walks through data of patent US20140088052A1, “CHALCONE DERIVATIVES AS NRF2 ACTIVATORS” (THE JOHNS HOPKINS UNIVERSITY, priority 2011, published 2014).

This test relates to Nrf2. Briefly: Expression of Nrf2-regulated genes GCLM and NQO1 by qRT-PCR in Beas-2B cells (screen). Conditions: Homo sapiens, 16 h, DMSO = 1.0 (Table 2). The format is cell-based, human. The procedure: To investigate the potency of the presently disclosed chalcone derivatives to activate Nrf2, the expression of antioxidant genes, GCLM and NADPH-NQO1, two well characterized transcriptional targets of Nrf2, were measured as surrogate markers. By “marker” is meant any protein or polynucleotide having an alteration in expression level or activity that is associated with a disease, disorder, or condition. It has been previously shown that oxidants or small molecule activators of Nrf2 increase GCLM and NQO1 in cells or tissues of wild-type, but not in Nrf2-deficient mice. Osburn, W. O., et al., Genetic or pharmacologic amplification of Nrf2 signaling inhibits acute inflammatory liver injury in mice. Toxicol. Sci. 2008, 104(1), 218-227. […]
RNA was isolated and gene expression was measured after 16 h.
Total RNA was extracted from cells/tissue using Qiagen RNeasy kit (Qiagen Corporation, Valencia, Calif.) and reverse transcription was performed by using random hexamers and MultiScribe reverse transcriptase according to the manufacturer's recommendations (Applied Biosystems, Foster City, Calif., USA). Quantitative real-time RT-PCR analyses of Nrf2, NQO1, HO1, and GCLM were performed by using Assay-on-Demand primers and probe sets from Applied Biosystems. Assays were performed using the ABI 7000 Taqman system (Applied Biosystems, Foster City, Calif.). β-actin was used for normalization.
In general terms: Quantitative PCR measures a nucleic acid by following its amplification.

[1] abbreviates: BEAS-2B, read-out: Relative Fold Change GCLM.
[2] abbreviates: BEAS-2B, read-out: Relative Fold Change NQO1.

Where two headings read alike, the source gives them in different places.

Turning to `COc1ccc(C(=O)/C=C/c2ccc(C(F)(F)F)cc2)cc1OC` [Compound 4h], the fold induction at 10 µM reads like this: under setting [1], 3.5; under setting [2], 2.7.

In the case of `COc1cc(OC)c(C(=O)/C=C/c2cccc(C(F)(F)F)c2)c(OC)c1` [Compound 3l, (E)-1-(2,4,6-trimethoxyphenyl)-3-(3-(trifluoromethyl)phenyl)prop-2-en-1-one], the fold induction at 10 µM under setting [1] worked out at 1.4 and the fold induction at 10 µM under setting [2] was 0.7.

For `COc1cccc(C(=O)/C=C/c2ccccc2)c1` [Compound 1c, (E)-1-(3-methoxyphenyl)-3-phenylprop-2-en-1-one], the fold induction at 10 µM by setting is: under setting [1], 1.5; under setting [2], 2.4.

As to `COc1ccc(C(=O)/C=C/c2ccccc2)cc1` [Compound 1d, (E)-1-(4-methoxyphenyl)-3-phenylprop-2-en-1-one], the fold induction at 10 µM runs as follows: under setting [1], 1.9; under setting [2], 2.8.

Regarding `COc1cc(C(=O)/C=C/c2cccc(C(F)(F)F)c2)cc(OC)c1OC` [Compound 3j, (E)-1-(3,4,5-trimethoxyphenyl)-3-(3-(trifluoromethyl)phenyl)prop-2-en-1-one], the fold induction at 10 µM is 1.7 under setting [1] and 0.8 under setting [2].

Take `O=C(/C=C/c1ccc(C(F)(F)F)cc1)c1ccccc1` [Compound 4a, (E)-1-phenyl-3-(4-(trifluoromethyl)phenyl)prop-2-en-1-one]: the fold induction at 10 µM by setting is: under setting [1], 3.31; under setting [2], 2.9.

`COc1cc(OC)c(C(=O)/C=C/c2ccccc2)c(OC)c1` [Compound 1l, (E)-3-phenyl-1-(2,4,6-trimethoxyphenyl)prop-2-en-1-one]: the fold induction at 10 µM under setting [1] worked out at 3.1 and the fold induction at 10 µM under setting [2] came out at 1.8.

Turning to `COc1ccc(OC)c(C(=O)/C=C/c2ccccc2C(F)(F)F)c1` [Compound 2g, (E)-1-(2,5-dimethoxyphenyl)-3-(2-(trifluoromethyl)phenyl)prop-2-en-1-one], the fold induction at 10 µM is, setting by setting: under setting [1], 4.4; under setting [2], 2.7.

With `COc1cc(C(=O)/C=C/c2ccccc2)cc(OC)c1OC` [Compound 1j, (E)-3-phenyl-1-(3,4,5-trimethoxyphenyl)prop-2-en-1-one], the fold induction at 10 µM turned out to be 0.7 under setting [1] and 0.7 under setting [2].

As to `COc1ccc(C(=O)/C=C/c2ccccc2)cc1OC` [Compound 1h, (E)-3-phenyl-1-(3,4-dimethoxyphenyl)prop-2-en-1-one], the fold induction at 10 µM (read-out: Relative Fold Change GCLM) is 2.3 and the fold induction at 10 µM (read-out: Relative Fold Change NQO1) stood at 2.5.

In the case of `COc1ccc(C(=O)/C=C/c2cccc(C(F)(F)F)c2)c(OC)c1` [Compound 3e, (E)-1-(2,4-dimethoxyphenyl)-3-(3-(trifluoromethyl)phenyl)prop-2-en-1-one], the fold induction at 10 µM is, setting by setting: under setting [1], 4.6; under setting [2], 4.

Consider `COc1cccc(OC)c1C(=O)/C=C/c1ccc(C(F)(F)F)cc1` [Compound 4f, (E)-1-(2,6-dimethoxyphenyl)-3-(4-(trifluoromethyl)phenyl)prop-2-en-1-one], for which the fold induction at 10 µM runs as follows: under setting [1], 1.4; under setting [2], 0.6.

Turning to `COc1ccc(C(=O)/C=C/c2cccc(C(F)(F)F)c2)cc1` [Compound 3d, (E)-1-(4-methoxyphenyl)-3-(3-(trifluoromethyl)phenyl)prop-2-en-1-one], the fold induction at 10 µM is, setting by setting: under setting [1], 2.7; under setting [2], 2.8.

As to `O=C(/C=C/c1cccc(C(F)(F)F)c1)c1ccccc1` [Compound 3a, (E)-1-phenyl-3-(3-(trifluoromethyl)phenyl)prop-2-en-1-one], the fold induction at 10 µM was found to be 3.1 under setting [1] and 2.8 under setting [2].

With `COc1ccc(C(=O)/C=C/c2cccc(C(F)(F)F)c2)c(OC)c1OC` [Compound 3k, (E)-1-(2,3,4-trimethoxyphenyl)-3-(3-(trifluoromethyl)phenyl)prop-2-en-1-one], the fold induction at 10 µM is, setting by setting: under setting [1], 3.6; under setting [2], 3.2.

Regarding `COc1cc(OC)c(C(=O)/C=C/c2ccc(C(F)(F)F)cc2)c(OC)c1` [Compound 4k], the fold induction at 10 µM was 2.4 under setting [1] and 2.4 under setting [2].
